Measurements as given in US20220168325A1, “METHODS TO PROMOTE CEREBRAL BLOOD FLOW IN THE BRAIN” (THE UNIVERSITY OF VERMONT, priority 2019, published 2022).

Experiments:
[1] = test system: capillary-to-arteriole electrical signaling; assay: Ex vivo capillary-parenchymal arteriole (CaPA) preparation: upstream arteriolar dilation to 10 mM K+ on capillaries; set-up: species or system C57BL/6J mouse
Description: Ex Vivo Capillary-Parenchymal Arteriole Preparation. The capillary-parenchymal arteriole (CaPA) preparation was obtained by dissecting parenchymal arterioles arising from the M1 region of the middle cerebral artery, leaving the attached capillary bed intact, as reported recently (Longden et al, “Capillary K^+-Sensing Initiates Retrograde Hyperpolarization to Increase Local Cerebral Blood Flow,” Nat. Neurosci. 20:717-726 (2017), which is hereby incorporated by reference in its entirety). Precapillary arteriolar segments were cannulated on glass micropipettes on a Living Systems Instrumentation pressure myograph, with one end occluded by a tie. The ends of the capillaries were then sealed by the downward pressure of an overlying glass micropipette. Application of pressure (40 mmHg) to the cannulated parenchymal arteriole segment in this preparation pressurized the entire tree and induced myogenic tone in the parenchymal arteriole segment. With this preparation, 10 mM K^+ was applied onto capillaries by pressure ejection from a glass micropipette (tip diameter, ˜5 μm) attached to a Picospritzer III (Parker) at ˜5 psi for 18 s. Luminal diameter in parenchymal arterioles was acquired in one region of the arteriolar segment at 15 Hz using IonWizard 6.2 edge-detection software (IonOptix). Changes in arteriolar diameter were calculated from the average luminal diameter measured over the last 10 s of stimulation and were normalized to the maximum dilatory responses in 0 mM Ca^2+ bath solution at the end of each experiment.
Capillary Kir2.1 channels sense increases in [K^+]o caused by increased neuronal activity and initiate a hyperpolarizing signal. By virtue of strong electrical coupling between endothelial cells, retrograde hyperpolarization ascends to upstream feeding arterioles to enhance cerebral blood flow to the site of signal initiation (Longden et al, “Capillary K^+-Sensing Initiates Retrograde Hyperpolarization to Increase Local Cerebral Blood Flow,” Nat. Neurosci. 20:717-726 (2017), which is hereby incorporated by reference in its entirety). […] During this lag period, Kir2.1 currents recorded in the perforated-patch configuration declined steadily (τdecay≈12 minutes), but K^+-mediated retrograde dilatory signaling remained intact until Kir2.1 currents reached ˜50% of their maximal amplitude (FIG. 7C).

[2] = test system: K+-evoked capillary hyperemia; assay: In vivo two-photon imaging of K+-evoked capillary RBC flux through cranial window; set-up: species or system C57BL/6J mouse
Kir2.1 channel [3] = biological target: T1, Kir2.1 channel (Mus musculus, UniProt P35561); assay: Patch-clamp recording of Kir2.1 currents in freshly isolated brain capillary endothelial cells (cECs); details: perforated patch
T1 sequence (P35561 1-428): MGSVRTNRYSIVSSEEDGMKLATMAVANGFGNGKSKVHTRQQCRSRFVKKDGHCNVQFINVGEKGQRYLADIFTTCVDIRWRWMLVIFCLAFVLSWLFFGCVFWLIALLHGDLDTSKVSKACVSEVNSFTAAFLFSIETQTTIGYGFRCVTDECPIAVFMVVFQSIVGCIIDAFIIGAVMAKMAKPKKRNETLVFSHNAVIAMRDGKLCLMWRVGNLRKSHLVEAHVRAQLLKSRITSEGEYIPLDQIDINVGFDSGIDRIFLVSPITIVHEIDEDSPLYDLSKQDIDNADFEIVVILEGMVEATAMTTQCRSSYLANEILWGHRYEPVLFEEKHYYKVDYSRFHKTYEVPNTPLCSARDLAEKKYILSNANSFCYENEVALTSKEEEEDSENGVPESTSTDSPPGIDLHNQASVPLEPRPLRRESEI

functional hyperemia = assay: Whisker stimulation-induced functional hyperemia in vivo (laser Doppler flowmetry, somatosensory cortex); set-up: species or system TgNotch3^WT and TgNotch3^R169C mice; details: exogenous PIP2 (diC16-PIP2 systemically via femoral artery catheter), CADASIL model mice
[4] = test system: capillary-to-arteriole electrical signaling; assay: Ex vivo CaPA preparation from transgenic mice: arteriolar tone and dilation to capillary 10 mM K+
intracerebral arterioles = assay: Luminal diameter of isolated pressurized parenchymal arterioles; set-up: species or system TgNotch3^WT and TgNotch3^R169C mice; details: bath soluble PIP2 10 μM; TgNotch3^WT and TgNotch3^R169C arterioles
Procedure: FIGS. 21A and 21B show typical recordings of luminal diameter of pressurized parenchymal arterioles from TgNotch3^WT (control) and TgNotch3^R169C (CADASIL) mice. NS309 and U46619 are used to test the ability of the arteriole to dilate and constrict, respectively. Bath application of soluble PIP2 at 10 μM has little effect on arteriole diameter.

Kir2.1 channel [5] = biological target: T1, Kir2.1 channel; assay: Patch-clamp Ba2+-sensitive Kir2.1 current in cECs from transgenic mice; format: cell-based, TgNotch3^WT and TgNotch3^R169C mice; set-up: freshly isolated capillary endothelial cells from TgNotch3^WT and TgNotch3^R169C brains; endogenous in cells; host or cells: freshly isolated brain capillary endothelial cells from TgNotch3^WT and TgNotch3^R169C mice (FVB/N background); details: CADASIL cECs
[6] = bath-applied PGE2 1 μM or carbachol 10 μM

| Kir2.1 current decline at X0 (12 minutes) (Kir2.1 channel [3]; carbachol 10 μM) | Time constant of exponential decay of Kir2.1 current (τdecay) (Kir2.1 channel [3]; PGE2 2 μM or carbachol 10 μM applied at t0) | Compound | Lag phase (X0) before inhibition of capillary-mediated arteriolar dilation [1, 6] | Time constant of postplateau exponential decay of K+-induced dilation (τdecay) [1, 6] | K+-induced upstream arteriolar vasodilation ([1]; bath-applied PGE2 1 μM or carbachol 10 μM, 10 mM K+ on capillaries) | Parenchymal arteriolar diameter ([1]; carbachol, FIGS. 8A-8D) | K+-induced increase in capillary RBC flux ([2]; carbachol 0.6 μg/kg intravascular, t=20 minutes after injection, 10 mM K+, saline controls 52±12%) | Baseline capillary RBC flux (before K+ application) ([2]; carbachol 0.6 μg/kg, over 30 minutes) | Functional hyperemia in vivo (functional hyperemia) | Upstream arteriole response to 10 mM K+ on capillaries ([4]; CaPA from endothelial specific Kir2.1^-/- (Kir channel deficient) mice, HB-EGF or soluble PIP2 present) | Arteriolar dilation in response to capillary stimulation with 10 mM K+ ([4]; TgNotch3^R169C CaPA, 1 mM 4-AP, 30 ng/mL HB-EGF bath, or exogenous PIP2 bath) | Arteriole diameter (intracerebral arterioles) | Kir2-mediated current (Kir2.1 channel [5]; exogenous soluble PIP2 10 μM (diC16-PIP2, 20 minutes pre-incubation)) | Kir current (Kir2.1 channel [5]; intracellular soluble PIP2 via patch pipette (10 μM diC8-PIP2)) |
| --- | --- | --- | --- | --- | --- | --- | --- | --- | --- | --- | --- | --- | --- | --- |
| ~58% | 8 min | C[N+](C)(C)CCOC(N)=O [carbachol] | ≈ 12 minutes | ≈ 13 minutes | similarly suppressed | minimally altered parenchymal arteriolar diameter | 10±6% | did not change | – | – | – | – | – | – |
| – | – | phosphatidylinositol 4,5-bisphosphate [soluble PIP2] | – | – | – | – | – | – | restored | absence of effect | restored | little effect | increased Kir2-mediated current in cECs from CADASIL mice to values observed in control groups | counteracted the reduction in Kir current |
